Results published in ChEMBL document CHEMBL4715930, “Reactivation of the Guardian of the Genome P53: A Promising Strategy for Treatment of Cancer” (ACS Med Chem Lett, 2021).

The molecules below were run against Tumour suppressor p53/oncoprotein Mdm2 (Homo sapiens, UniProt Q00987) (assay: Inhibition of GST-tagged MDM2 (23 to 117 residues) (unknown origin) assessed as inhibition of MDM2/biotinylated wild type human p53 (16 to 27 residues) interaction by measuring reactivation of p53 incubated for 15 mins by AlphaScreen assay).
Chain of Tumour suppressor p53/oncoprotein Mdm2 (P04637 whole entry, the tested form may be a part): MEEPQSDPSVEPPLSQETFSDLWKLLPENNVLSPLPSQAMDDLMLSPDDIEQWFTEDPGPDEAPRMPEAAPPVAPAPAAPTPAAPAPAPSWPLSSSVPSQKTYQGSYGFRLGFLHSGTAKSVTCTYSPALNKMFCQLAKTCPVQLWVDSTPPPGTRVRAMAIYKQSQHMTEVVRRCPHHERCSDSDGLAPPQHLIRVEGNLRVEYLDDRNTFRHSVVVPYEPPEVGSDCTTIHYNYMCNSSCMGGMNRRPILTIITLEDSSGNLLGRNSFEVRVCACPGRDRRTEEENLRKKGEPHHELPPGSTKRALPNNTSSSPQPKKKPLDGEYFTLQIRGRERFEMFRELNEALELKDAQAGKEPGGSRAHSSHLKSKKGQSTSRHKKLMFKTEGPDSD
Chain of Tumour suppressor p53/oncoprotein Mdm2 (Q00987 whole entry, the tested form may be a part): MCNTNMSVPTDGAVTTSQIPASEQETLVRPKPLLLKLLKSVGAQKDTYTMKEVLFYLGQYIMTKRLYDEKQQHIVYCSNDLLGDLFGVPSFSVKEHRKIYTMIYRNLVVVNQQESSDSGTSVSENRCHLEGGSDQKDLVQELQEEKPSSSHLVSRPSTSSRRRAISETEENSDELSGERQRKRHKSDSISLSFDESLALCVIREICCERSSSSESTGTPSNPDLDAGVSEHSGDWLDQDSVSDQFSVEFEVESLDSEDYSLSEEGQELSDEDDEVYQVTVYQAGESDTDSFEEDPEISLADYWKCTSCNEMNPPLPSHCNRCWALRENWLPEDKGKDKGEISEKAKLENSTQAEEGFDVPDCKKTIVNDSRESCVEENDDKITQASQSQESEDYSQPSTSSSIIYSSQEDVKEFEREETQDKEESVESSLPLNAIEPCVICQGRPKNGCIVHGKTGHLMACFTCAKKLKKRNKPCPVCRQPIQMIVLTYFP
Type: protein assay

| SMILES | IC50 |
| --- | --- |
| Cc1c(C(=O)N2CCCCC2)ccn2c3c(nc12)[C@@H]1[C@H](CC3)N(CC2CC2)[C@@]2(C(=O)Nc3cc(Cl)ccc32)[C@H]1c1ccnc(Cl)c1F | 10 nM |
| O=C(O)c1ccc2c(c1)nc1n2CC[C@@H]2[C@H]1[C@H](c1cccc(Cl)c1F)[C@]1(C(=O)Nc3cc(Cl)ccc31)N2CC1CC1 | 79 nM |
| CCOc1cccc(CN2[C@H]3Cc4c5cc(C)c(C(=O)NC)cc5nn4[C@H]3[C@H](c3cccc(Cl)c3F)[C@]23C(=O)Nc2nc(Cl)ccc23)c1 | 5 nM |
